Tests used:
[1] = Stability test (impurity contents by HPLC after storage of the solid); assay type: physicochemical; details: p-toluenesulfonate
Experimental: A sample of crystalline form C of compound (I) (100˜200 mg) was placed on a watching glass in the form of a thin layer (thickness ≦5 mm). The samples were exposed to the following conditions: high temperature (60±2° C.) for 10 days; high humidity (25±2° C., 90%±5% relative humidity) for 10 days; illumination condition (visible light 4500 lx±500 lx with ultraviolet light not lower than 0.7 W·h/m^2, 25±2° C., 60%±5% relative humidity) for 10 days; and room temperature (30±2° C., 65%±5% relative humidity) for 10 days, respectively. The impurity contents in the samples were determined at different time points (0, 5 and 10 days) by high performance liquid chromatography (HPLC), and the absorption peaks were normalized relative to the highest peak (corresponds to compound I) which is set to 100%.

[2] = Hygroscopicity test; assay type: physicochemical; details: p-toluenesulfonate; for Hygroscopicity (in words): conclusion from Table 4; for Hygroscopic capacity %: 25±1° C.
Experimental: A glass weighing bottle equipped with a stopper was tarred and the weight was recorded as m1. Compound (I) in crystalline form C or amorphous form (about 1.0 g) was placed in the tared weighing bottle and capped with the stopper. The total weight was then recorded as m2. […] The weighing bottle capped with its stopper was weighed on day 5 and day 10 and the weight was recorded as m3.

[3] = Stability test (impurity contents by HPLC after storage of the solid); assay type: physicochemical; details: p-toluenesulfonate; for Increase of the impurity contents: illuminating the samples for 10 days
[4] = Pharmacokinetics test in beagle dogs; assay type: in vivo
Experimental: The pharmacokinetic properties of amorphous Compound (I) or the crystalline form C of Compound (I) disclosed herein are assessed in beagle dogs. The LC/MS/MS system used in the analysis consists of an Agilent 1200 Series vacuum degasser, binary pump, well-plate autosampler, thermostatted column compartment, the Agilent G6430 Triple Quadrupole Mass Spectrometer with an electrosprayionization (ESI) source. Quantitative analysis was carried out using MRM mode. The parameters for MRM transitions are in the Table A.
An Agilent XDB-C18, 2.1×30 mm, 3.5 μM column was used for the analysis. 5 μL of the samples were injected. Analysis condition: The mobile phase was 0.1% formic acid in water (A) and 0.1% formic acid in methanol (B). The flow rate was 0.4 mL/min. And the gradient of Mobile phase was in the Table B.
Alternatively, an Agilent 6330 series LC/MS/MS spectrometer equipped with G1312A binary pumps, a G1367A autosampler and a G1314C UV detector were used in the analysis. An ESI source was used on the LC/MS/MS spectrometer. The analysis was done in positive ion mode as appropriate and the MRM transition for each analyte was optimized using standard solution. A Capcell MP-C18 100×4.6 mm I.D., […] column (Phenomenex, Torrance, Calif., USA) was used during the analysis. The mobile phase was 5 mM ammonia acetate, 0.1% MeOH in water (A): 5 mM ammonia acetate, 0.1% MeOH in acetonitrile (B) (70/30, v/v). The flow rate was 0.6 mL/min. Column was maintained at ambient temperature. 20 μL of the samples were injected.
The capsule of the crystalline form C or the amorphous of Compound (I) mixed with adjuvants respectively was administered by gavage to beagle dogs in a dose of 7 or 10 mg/kg. The blood samples (0.3 mL) were drawn at 0.25, 0.5, 1.0, 2.0, 3.0, 4.0, 6.0, 8.0, 12 and 24 hour time points or 0.083, 0.25, 0.5, 1.0, 2.0, 4.0, 6.0, 8.0 and 24 hour time points and centrifuged at 3,000 or 4000 rpm for 2 to 10 min. The plasma solutions were collected, and analyzed by LC/MS/MS as described above. The pharmacokinetic parameters were calculated according to non-compartment model using WinNonlin procedure.

[5] = high temperature (60±2° C.), 0 day
[6] = high temperature (60±2° C.), 5 days
[7] = illuminating condition (visible light 4500 lx±500 lx with UV, 25±2° C., 60%±5% RH), 0 day
[8] = illuminating condition (visible light 4500 lx±500 lx with UV, 25±2° C., 60%±5% RH), 5 days
[9] = room temperature (30±2° C., 65%±5% relative humidity), 5 days
[10] = room temperature (30±2° C., 65%±5% relative humidity), 10 days
[11] = listed as amorphous Compound (I)
[12] = high humidity (25±2° C., 90%±5% relative humidity), 0 day
[13] = high humidity (25±2° C., 90%±5% relative humidity), 5 days
[14] = high humidity (25±2° C., 90%±5% relative humidity), 10 days
[15] = high temperature (60±2° C.), 10 days
[16] = illuminating condition (visible light 4500 lx±500 lx with UV, 25±2° C., 60%±5% RH), 10 days
[17] = room temperature (30±2° C., 65%±5% relative humidity), 0 day
[18] = dog, plasma, po, capsule by gavage, dose 9.9 mg/kg (Form C), 9.7 mg/kg (Amorphous)

Row | Compound | The impurity contents [1, 5] [%] | The impurity contents [1, 6] [%] | The impurity contents [1, 7] [%] | The impurity contents [1, 8] [%] | The impurity contents [1, 9] [%] | The impurity contents [1, 10] [%] | Hygroscopic capacity % ([2]; standing time 5 d) [%] | Hygroscopic capacity % ([2]; standing time 10 d) [%] | The impurity contents [3, 12] [%] | The impurity contents [3, 13] [%] | The impurity contents [3, 14] [%] | The impurity contents [3, 15] [%] | The impurity contents [3, 16] [%] | The impurity contents [3, 17] [%] | other results
1 | Cc1c(C(=O)Nc2ccc(Oc3ccnc4cc(OCC(C)(C)O)ccc34)c(F)c2)c(=O)n(-c2ccccc2)n1C.Cc1ccc(S(=O)(=O)O)cc1 [Amorphous, N-(3-fluoro-4-((7-(2-hydroxy-2-methylpropoxy)quinolin-4-yl)oxy)phenyl)-1,5-dimethyl-3-oxo-2-phenyl-2,3-dihydro-1H-pyrazole-4-carboxamide p-toluenesulfonate] | 0.14 | 0.13 | 0.14 | 0.36 | 0.07 | 0.07 | 7.74 | 8.48 | 0.14 | 0.11 | 0.07 | 0.10 | 0.56 | 0.14 | Hygroscopicity (in words) [2, 11]: hygroscopic; Increase of the impurity contents [3, 11]: 0.42%
2 | Cc1c(C(=O)Nc2ccc(Oc3ccnc4cc(OCC(C)(C)O)ccc34)c(F)c2)c(=O)n(-c2ccccc2)n1C.Cc1ccc(S(=O)(=O)O)cc1 [Form C, N-(3-fluoro-4-((7-(2-hydroxy-2-methylpropoxy)quinolin-4-yl)oxy)phenyl)-1,5-dimethyl-3-oxo-2-phenyl-2,3-dihydro-1H-pyrazole-4-carboxamide p-toluenesulfonate] | 2.00 | 1.97 | 2.00 | 1.97 | 1.90 | 1.91 | 0.22 | 0.43 | 2.00 | 1.94 | 1.92 | 1.89 | 2.14 | 2.00 | Hygroscopicity (in words) ([2]; listed as crystalline form C of compound (I)): not hygroscopic; Exposure and bioavailability in vivo (in words) ([4]; Cmax, AUC0-24h and AUC0-∞ compared with amorphous Compound (I)): good exposure and bioavailability; AUC(0-inf) [4, 18]: 90100 ng·h/mL; Cmax [4, 18]: 4760 ng/mL; Tmax [4, 18]: 4 h; half-life [4, 18]: 14.6 h; AUC(0-t) ([4]; dog, plasma, po, capsule by gavage, dose 9.9 mg/kg (Form C), 9.7 mg/kg (Amorphous), read-out: AUC0-24 h): 59700 ng·h/mL; Increase of the impurity contents ([3]; listed as crystalline form C of Compound (I)): 0.14%

— patent US9695150B2, “Crystalline form of a substituted quinoline compound and pharmaceutical compositions thereof” (Sunshine Lake Pharma Co., Ltd., priority 2015, dated 2017)
